The values that follow come from patent US20250074889A1, “Novel Aminobenzene Derivative Having Cancer Cell Growth Inhibitory Effect, and Preventive or Therapeutic Pharmaceutical Composition Containing Same as Active Ingredient” (Daewoong Pharmaceutical Co., Ltd., priority 2022, published 2025).

Holding throughout (assay type): cell-based
Experiment [1] has as its system NCI-H28 human mesothelioma cell line. In words: Cell growth inhibition test (CellTiter-Glo), NCI-H28. Conditions: NCI-H28 cells. Here is the method: (§1) The cell growth for the compounds prepared in Examples was measured by CellTiter-Glo® Luminescent Cell Viability (Promega, Catalog #G7571) method using NCI-H226 (addexbio), NCI-H28 (Korea Cell Line Bank) and MSTO-211H (elabscience) human mesothelioma cell lines. This evaluation method is a method in which when luciferase enzyme is activated by ATP flowing out from living cells, it reacts with a luciferin substrate, and the enzyme activity at this time is measured to confirm cell viability.
(§2) Specifically, NCI-H226, NCI-H28, and MSTO-211H cells were prepared in 100 μL of cell culture medium (RPMI medium, 10% FBS, 1% P/S, 4.5 g/L D-Glucose, 2.383 g/L HEPES Buffer, L-Glutamine, 1.5 g/L Sodium Bicarbonate, 110 mg/L Sodium pyruvate) in a white clear bottom 96-well microplate. The prepared plate was incubated in a 5% CO2 incubator at 37° C. for 24 hours, and then the previously prepared compounds of Examples were finally treated at concentrations of 0.001, 0.01, 0.1, 1, and 10 μM, which was repeated three times for all treatment solutions. The plates treated with the compounds of Examples were incubated in a 5% CO2 incubator at 37° C. 100 μL/well of the substrate aqueous solution containing luciferin was added to a white clear-bottom 96 well microplate, thereby initiating an enzyme reaction. The reaction was performed at room temperature in the dark for 10 minutes, and the luminescence was measured using a Flexstation3 multi-mode microplate reader. In accordance with the instructions for the CellTiter-Glo™ Luminescednt Cell Viability, the luciferase enzyme activity, which represents the amount of ATP, was measured by a chemiluminescence method, and the inhibitory activity of the compounds according to the present invention was calculated. The results of each compound were analyzed using Microsoft Excel, and the IC50 values were calculated using GraphPad Prism software.
A general note: Cellular ATP, detected with luciferase, serves as a proxy for viable cell number.

Experiment [2] concerns transcription factor TEAD. In words: Activity inhibition test of transcription factor TEAD (ONE-Glo luciferase, TEAD reporter-MCF7 cell line). Conditions: Homo sapiens; TEAD Reporter-MCF7 cells, 24 hours treatment, luciferase luminescence. Here is the method: The transcription factor TEAD activity of the compounds prepared in Examples was measured by the ONE-Glo™ Luciferase assay (Promega, Catalog #E6110) method using the Hippo Pathway TEAD reporter-MCF7 recombinant cell line (BPS Bioscience, Catalog #60618).
Specifically, the TEAD Reporter-MCF7 cell line contains the firefly luciferase gene whose expression is regulated under the control of TEAD response elements in the MCF7, which is a human breast cancer cell line. In the cell line, a non-phosphorylated YAP/TAZ exists in the nucleus in a non-stressed condition, which continuously induces expression of the luciferase reporter.
TEAD Reporter-MCF7 cells were prepared in 100 μL of cell culture medium (MEM medium, 10% FBS, 1% P/S, 400 μg/mL Geneticin, 1% […], 1 mM NA pyruvate, 10 μg/mL Insulin) in a white clear bottom 96-well microplate. The prepared plate was incubated in a 5% CO2 incubator at 37° C. for 24 hours, and then the previously prepared compounds of Examples were finally treated at concentrations of 0.001, 0.01, 0.1, 1, and 10 µM, which were repeated three times for all treatment solutions. The plates treated with the compounds of Examples were incubated in a 5% CO2 incubator at 37° C. for 24 hours. 100 μL/well of the substrate aqueous solution containing luciferin was added to a white clear-bottom 96 well microplate, thereby initiating an enzyme reaction. The reaction was performed at room temperature for 5 minutes, and the luminescence (integration time 1000 ms) was measured using a Flexstation3 multi-mode microplate reader. In accordance with the instructions for the ONE-Glo™ Luciferase Assay, the luciferase enzyme activity, which represents the activity of the transcription factor TEAD, was measured by a chemiluminescence method, and the inhibitory activity of the compound according to the present invention was calculated. The results of each compound were analyzed using Microsoft Excel, and the IC50 values were calculated by GraphPad Prism software.

The test system of experiment [3] is MSTO-211H human mesothelioma cell line. The experiment can be described thus: Cell growth inhibition test (CellTiter-Glo), MSTO-211H. The note with it: MSTO-211H cells. How it is done: as §1, §2
The test system of experiment [4] is NCI-H226 human mesothelioma cell line. In words: Cell growth inhibition test (CellTiter-Glo), NCI-H226. Conditions: NCI-H226 cells. Here is the method: as §1, §2

Where only a bound is given, the exact number is not on record here.

As to `C=CC(=O)Nc1ccc(Nc2cc(C(F)(F)F)ccn2)c(-c2cn(C)cn2)c1` [Example 31, N-(3-(1-methyl-1H-imidazol-4-yl)-4-((4-(trifluoromethyl)pyridin-2-yl)amino)phenyl)acrylamide], the IC50 – broadly, the concentration that inhibits the measured activity by half – is 3110 nM in experiment [1], 314 nM in experiment [2] and > 10000 nM in experiment [3].
For `C=CC(=O)Nc1cc(F)c(Nc2ccc(C(F)(F)F)cn2)c(-c2ccccn2)c1` [Example 29, N-(3-fluoro-5-(pyridin-2-yl)-4-((5-(trifluoromethyl)pyridin-2-yl)amino)phenyl)acrylamide], the IC50 turned out to be 2550 nM in experiment [1], 21.5 nM in experiment [2], 20 nM in experiment [4] and 196 nM in experiment [3].
As to `C=CC(=O)Nc1ccc(Nc2ncc(C(F)(F)F)cc2F)c(-c2ccccn2)c1` [Example 21, N-(4-((3-fluoro-5-(trifluoromethyl)pyridin-2-yl)amino)-3-(pyridin-2-yl)phenyl)acrylamide], the IC50 in experiment [1] came to 2680 nM; in experiment [2], 11.5 nM; in experiment [4], 9 nM; in experiment [3], 3270 nM.
Turning to `C=CC(=O)Nc1ccc(Nc2cc(C3CC3)c(Cl)cn2)c(-c2ccccn2)c1` [Example 30, N-(4-((5-chloro-4-cyclopropylpyridin-2-yl)amino)-3-(pyridin-2-yl)phenyl)acrylamide], the IC50 in experiment [1] was found to be 8790 nM; in experiment [2] it was 31.6 nM; in experiment [4] it was 10 nM; in experiment [3] it was 2210 nM.
In the same order, the values of `C=CC(=O)Nc1ccc(Nc2ccc(C(F)(F)F)cn2)c(-c2ccncn2)c1` [Example 15, N-(3-(pyrimidin-4-yl)-4-((5-(trifluoromethyl)pyridin-2-yl)amino)phenyl)acrylamide] are 1570 nM, 42.8 nM, 71.8 nM and 552 nM.
On to `C=CC(=O)Nc1ccc(Nc2ccc(C(F)(F)F)c(F)c2)c(-c2cn(C)cn2)c1` [Example 40, N-(4-((3-fluoro-4-(trifluoromethyl)phenyl)amino)-3-(1-methyl-1H-imidazol-4-yl)phenyl)acrylamide], for which the IC50 in experiment [1] was 5540 nM; in experiment [2], 15 nM; in experiment [4] it was 6.6 nM; in experiment [3] it was 1130 nM.
In the same order, the values of `C=CC(=O)Nc1ccc(Nc2ccc(C(F)(F)F)cc2)c(-c2cn(C)cn2)c1` [Example 35, N-(3-(1-methyl-1H-imidazol-4-yl)-4-((4-(trifluoromethyl)phenyl)amino)phenyl)acrylamide] are 3020 nM, 5.3 nM, 3 nM and 105 nM.
Consider `C=CC(=O)Nc1ccc(Nc2ccc(C(F)(F)F)cn2)c(-c2ccccn2)c1` [Example 4, N-(3-(pyridin-2-yl)-4-((5-(trifluoromethyl)pyridin-2-yl)amino)phenyl)acrylamide], for which the IC50 was 3310 nM in experiment [1], 17.8 nM in experiment [2], 6 nM in experiment [4] and 130 nM in experiment [3].
For the compound `C=CC(=O)Nc1ccc(Nc2cc(Cl)c(Cl)cn2)c(-c2cn(C)cn2)c1` [Example 10, N-(4-((4,5-dichloropyridin-2-yl)amino)-3-(1-methyl-1H-imidazol-4-yl)phenyl)acrylamide], the IC50 was found to be 23 nM in experiment [2] and 10 nM in experiment [4].
As to `C=CC(=O)Nc1ccc(Nc2ncc(C(F)(F)F)cc2F)c(-c2cn(C)cn2)c1` [Example 36, N-(4-((3-fluoro-5-(trifluoromethyl)pyridin-2-yl)amino)-3-(1-methyl-1H-imidazol-4-yl)phenyl)acrylamide], the IC50 in experiment [1] is > 10000 nM; in experiment [2] it was 27 nM; in experiment [4] it was 12 nM; in experiment [3], > 10000 nM.
`C=CC(=O)Nc1ccc(NC2CCCCC2)c(-c2ccccn2)c1` [Example 2, N-(4-(cyclohexylamino)-3-(pyridin-2-yl)phenyl)acrylamide]: the IC50 was found to be 12.3 nM in experiment [2] and 46 nM in experiment [4].
In the same order, the values of `C=CC(=O)Nc1ccc(NC2CCCCC2)c(-c2ccccc2)c1` [Example 1, N-(6-(cyclohexylamino)-[1,1′-biphenyl]-3-yl)acrylamide] are 42 nM and 132 nM.
As to `C=CC(=O)Nc1ccc(Nc2cc(Cl)c(Cl)cn2)c(-c2ccn(C)n2)c1` [Example 55, N-(4-((4,5-dichloropyridin-2-yl)amino)-3-(1-methyl-1H-pyrazol-3-yl)phenyl)acrylamide], the IC50 worked out at 1250 nM in experiment [1], 12.8 nM in experiment [2], 65 nM in experiment [4] and 167 nM in experiment [3].
Take `C=CC(=O)Nc1ccc(Nc2cc(F)c(C(F)(F)F)c(F)c2)c(-c2cn(C)cn2)c1` [Example 46, N-(4-((3,5-difluoro-4-(trifluoromethyl)phenyl)amino)-3-(1-methyl-1H-imidazol-4-yl)phenyl)acrylamide]: the IC50 was determined as 28 nM in experiment [2] and 13.1 nM in experiment [4].
For the compound `C=CC(=O)Nc1ccc(Nc2cc(C(F)(F)F)ccn2)c(-c2ccn(C)n2)c1` [Example 54, N-(3-(1-methyl-1H-pyrazol-3-yl)-4-((4-(trifluoromethyl)pyridin-2-yl)amino)phenyl)acrylamide], the IC50 in experiment [2] was 23.4 nM; in experiment [4], 11.8 nM.
The matching figures for `C=CC(=O)Nc1ccc(Nc2ccc(C(F)(F)F)c(F)c2F)c(-c2cn(C)cn2)c1` [Example 44, N-(4-((2,3-difluoro-4-(trifluoromethyl)phenyl)amino)-3-(1-methyl-1H-imidazol-4-yl)phenyl)acrylamide]: 8 nM and 3.9 nM.
For the compound `C=CC(=O)Nc1ccc(Nc2ncc(C(F)(F)F)cc2Cl)c(-c2ccccn2)c1` [Example 7, N-(4-((3-chloro-5-(trifluoromethyl)pyridin-2-yl)amino)-3-(pyridin-2-yl)phenyl)acrylamide], the IC50 in experiment [2] was 53.5 nM; in experiment [4], 122 nM.
Turning to `C=CC(=O)Nc1ccc(Nc2cc(Cl)c(Cl)cn2)c(-c2ccccn2)c1` [Example 8, N-(4-((4,5-dichloropyridin-2-yl)amino)-3-(pyridin-2-yl)phenyl)acrylamide], the results for the IC50 in experiment [2] and in experiment [4] were 15.4 nM and 14 nM, respectively.
With `C=CC(=O)Nc1ccc(Nc2ccc(C(F)(F)F)c(Cl)c2)c(-c2cn(C)cn2)c1` [Example 43, N-(4-((3-chloro-4-(trifluoromethyl)phenyl)amino)-3-(1-methyl-1H-imidazol-4-yl)phenyl)acrylamide], the IC50 in experiment [2] amounted to 33 nM; in experiment [4], 7.4 nM.
`C=CC(=O)Nc1ccc(NCc2ccc(F)cc2)c(-c2ccccn2)c1` [Example 12, N-(4-((4-fluorobenzyl)amino)-3-(pyridin-2-yl)phenyl)acrylamide]: the IC50 in experiment [2] was 2.4 nM; in experiment [4], 1250 nM.
As to `C=CC(=O)Nc1ccc(Nc2ccc(Cl)c(C)n2)c(-c2cn(C)cn2)c1` [Example 49, N-(4-((5-chloro-6-methylpyridin-2-yl)amino)-3-(1-methyl-1H-imidazol-4-yl)phenyl)acrylamide], the IC50 in experiment [2] stood at 258 nM; in experiment [4], 18.8 nM.
The matching figures for `C=CS(=O)(=O)Nc1cnc(NCCc2nccs2)c(/C=C/c2ccc(F)cc2)c1` [Example 28]: 28.6 nM and 875 nM.
For the compound `C=CC(=O)Nc1ccc(N[C@H]2CC[C@@H](C(F)(F)F)CC2)c(-c2ccccn2)c1` [Example 3, N-(3-(pyridin-2-yl)-4-((cis-4-(trifluoromethyl)cyclohexyl)amino)phenyl)acrylamide], the values for the IC50 in experiment [2] and in experiment [4] were 3.7 nM and > 10000 nM, respectively.
